Assay results as given in the NIST ThermoML archive (doi:10.1021/acs.jced.5b00893).
Numbers after ± are expanded uncertainties.

Conditions: 293.15 K; 101.33 kPa; Liquid; Vibrating tube method

| mass density [kg/m3] | Compound |
| --- | --- |
| 1058 ± 2 | CN1CCN(C)C1=O [1,3-dimethyl-2-imidazolidinone] |
| 1065 ± 2 | CN1CCCN(C)C1=O [1,3-dimethyl-3,4,5,6-tetrahydro-2(1H)-pyrimidinone] |
| 982 ± 2 | CCCCOC(=O)C(C)O (centres undefined) [butyl 2-hydroxypropanoate] |

| Compound | mass density [kg/m3] |
| --- | --- |
| O=C1CCCO1 [γ-butyrolactone] | 1129 ± 2 |
